Source: ChEMBL document CHEMBL2074442, “Recognition of beta-lactam antibiotics by rat peptide transporters, PEPT1 and PEPT2, in LLC-PK1 cells” (Am J Physiol, 1997)

T1: Solute carrier family 15 member 2 (Rattus norvegicus, UniProt Q63424)
T1 sequence (Q63424 whole entry): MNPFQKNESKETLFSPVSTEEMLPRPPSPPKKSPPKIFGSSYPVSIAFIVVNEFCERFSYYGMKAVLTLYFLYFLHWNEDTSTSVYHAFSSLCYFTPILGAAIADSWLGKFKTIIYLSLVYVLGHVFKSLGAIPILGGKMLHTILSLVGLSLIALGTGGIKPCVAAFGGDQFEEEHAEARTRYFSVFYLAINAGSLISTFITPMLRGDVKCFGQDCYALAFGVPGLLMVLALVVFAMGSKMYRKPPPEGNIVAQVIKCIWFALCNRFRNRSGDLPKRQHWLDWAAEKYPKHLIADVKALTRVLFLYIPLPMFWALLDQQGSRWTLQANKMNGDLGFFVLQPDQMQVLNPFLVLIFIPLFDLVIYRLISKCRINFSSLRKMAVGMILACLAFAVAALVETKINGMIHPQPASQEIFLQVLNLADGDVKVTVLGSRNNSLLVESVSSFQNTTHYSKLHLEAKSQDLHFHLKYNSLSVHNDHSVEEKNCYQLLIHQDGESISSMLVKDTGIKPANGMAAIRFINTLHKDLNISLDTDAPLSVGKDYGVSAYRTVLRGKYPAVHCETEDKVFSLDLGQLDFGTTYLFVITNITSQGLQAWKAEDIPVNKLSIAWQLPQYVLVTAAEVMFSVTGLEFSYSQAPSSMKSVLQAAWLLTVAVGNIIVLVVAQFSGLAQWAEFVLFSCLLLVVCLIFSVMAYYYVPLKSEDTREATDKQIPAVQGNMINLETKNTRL

T2: Solute carrier family 15 member 1 (Rattus norvegicus, UniProt P51574)
T2 sequence (P51574 whole entry): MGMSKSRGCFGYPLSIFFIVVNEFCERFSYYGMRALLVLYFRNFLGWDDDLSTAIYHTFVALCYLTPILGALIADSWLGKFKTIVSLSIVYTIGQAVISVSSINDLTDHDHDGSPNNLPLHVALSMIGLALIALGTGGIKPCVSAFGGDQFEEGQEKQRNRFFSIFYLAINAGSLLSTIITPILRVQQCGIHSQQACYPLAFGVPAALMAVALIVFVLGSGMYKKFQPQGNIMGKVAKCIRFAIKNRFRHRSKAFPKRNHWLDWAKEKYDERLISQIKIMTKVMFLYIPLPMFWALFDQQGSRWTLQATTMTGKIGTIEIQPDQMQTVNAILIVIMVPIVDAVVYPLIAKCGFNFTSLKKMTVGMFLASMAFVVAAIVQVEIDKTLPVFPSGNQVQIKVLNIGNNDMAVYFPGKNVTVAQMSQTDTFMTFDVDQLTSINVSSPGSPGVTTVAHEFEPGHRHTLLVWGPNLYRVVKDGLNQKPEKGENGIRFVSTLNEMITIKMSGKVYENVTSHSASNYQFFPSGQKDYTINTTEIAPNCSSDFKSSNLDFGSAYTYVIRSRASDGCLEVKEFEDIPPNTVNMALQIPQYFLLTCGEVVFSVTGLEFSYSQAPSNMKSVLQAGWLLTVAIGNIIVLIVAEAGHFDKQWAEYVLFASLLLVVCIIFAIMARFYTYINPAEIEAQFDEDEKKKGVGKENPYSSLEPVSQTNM


Key:
Format in all cases: functional, cell-based
[1] = biological target: T1, Solute carrier family 15 member 2; assay: TP_TRANSPORTER: inhibition of Gly-Sar uptake in PEPT2-expressing LLC-PK1 cells
[2] = biological target: T2, Solute carrier family 15 member 1; assay: TP_TRANSPORTER: inhibition of Gly-Sar uptake in PEPT1-expressing LLC-PK1 cells
[3] = substrate: CN(CC(=O)O)C(=O)CN; assay: TP_TRANSPORTER: uptake in PEPT2-expressing LLC-PK1 cells
[4] = substrate: CN(CC(=O)O)C(=O)CN; assay: TP_TRANSPORTER: uptake in PEPT1-expressing LLC-PK1 cells

Molecule | Ki [1] | Ki [2] | Km [3] | Km [4]
CC1(C)S[C@@H]2[C@H](NC(=O)[C@H](N)c3ccc(O)cc3)C(=O)N2[C@H]1C(=O)O [AMOXICILLIN] | 179 µM | 13000 µM |  | 
CC1(C)S[C@@H]2[C@H](NC(=O)[C@H](N)c3ccccc3)C(=O)N2[C@H]1C(=O)O [AMPICILLIN] | 669 µM | 47800 µM |  | 
CC1=C(C(=O)O)N2C(=O)[C@@H](NC(=O)[C@H](N)c3ccc(O)cc3)[C@H]2SC1 [CEFADROXIL] | 3 µM | 2170 µM |  | 
C=CC1=C(C(=O)O)N2C(=O)[C@@H](NC(=O)/C(=N\O)c3csc(N)n3)[C@H]2SC1 [CEFDINIR] | 20100 µM | 11900 µM |  | 
C=CC1=C(C(=O)O)N2C(=O)[C@@H](NC(=O)/C(=N\OCC(=O)O)c3csc(N)n3)[C@H]2SC1 [CEFIXIME] | 11900 µM | 6920 µM |  | 
Nc1nc(/C(=C/CC(=O)O)C(=O)N[C@@H]2C(=O)N3C(C(=O)O)=CCS[C@H]23)cs1 [CEFTIBUTEN] | 1340 µM | 597 µM |  | 
CC1=C(C(=O)O)N2C(=O)[C@@H](NC(=O)[C@H](N)c3ccccc3)[C@H]2SC1 [CEPHALEXIN ANHYDROUS] | 49 µM | 4500 µM |  | 
CC1=C(C(=O)O)N2C(=O)[C@@H](NC(=O)[C@H](N)C3=CCC=CC3)[C@H]2SC1 [CEPHRADINE] | 47 µM | 8540 µM |  | 
CC1(C)S[C@@H]2[C@H](NC(=O)C3(N)CCCCC3)C(=O)N2[C@H]1C(=O)O [CYCLACILLIN] | 27 µM | 168 µM |  | 
Solute carrier family 15 member 2 (Rattus norvegicus), Q63424 (protein) MNPFQKNESKETLFSPVSTEEMLPRPPSPPKKSPPKIFGSSYPVSIAFIVVNEFCERFSYYGMKAVLTLYFLYFLHWNEDTSTSVYHAFSSLCYFTPILGAAIADSWLGKFKTIIYLSLVYVLGHVFKSLGAIPILGGKMLHTILSLVGLSLIALGTGGIKPCVAAFGGDQFEEEHAEARTRYFSVFYLAINAGSLISTFITPMLRGDVKCFGQDCYALAFGVPGLLMVLALVVFAMGSKMYRKPPPEGNIVAQVIKCIWFALCNRFRNRSGDLPKRQHWLDWAAEKYPKHLIADVKALTRVLFLYIPLPMFWALLDQQGSRWTLQANKMNGDLGFFVLQPDQMQVLNPFLVLIFIPLFDLVIYRLISKCRINFSSLRKMAVGMILACLAFAVAALVETKINGMIHPQPASQEIFLQVLNLADGDVKVTVLGSRNNSLLVESVSSFQNTTHYSKLHLEAKSQDLHFHLKYNSLSVHNDHSVEEKNCYQLLIHQDGESISSMLVKDTGIKPANGMAAIRFINTLHKDLNISLDTDAPLSVGKDYGVSAYRTVLRGKYPAVHCETEDKVFSLDLGQLDFGTTYLFVITNITSQGLQAWKAEDIPVNKLSIAWQLPQYVLVTAAEVMFSVTGLEFSYSQAPSSMKSVLQAAWLLTVAVGNIIVLVVAQFSGLAQWAEFVLFSCLLLVVCLIFSVMAYYYVPLKSEDTREATDKQIPAVQGNMINLETKNTRL |  |  | 110 µM | 
Solute carrier family 15 member 1 (Rattus norvegicus), P51574 (protein) MGMSKSRGCFGYPLSIFFIVVNEFCERFSYYGMRALLVLYFRNFLGWDDDLSTAIYHTFVALCYLTPILGALIADSWLGKFKTIVSLSIVYTIGQAVISVSSINDLTDHDHDGSPNNLPLHVALSMIGLALIALGTGGIKPCVSAFGGDQFEEGQEKQRNRFFSIFYLAINAGSLLSTIITPILRVQQCGIHSQQACYPLAFGVPAALMAVALIVFVLGSGMYKKFQPQGNIMGKVAKCIRFAIKNRFRHRSKAFPKRNHWLDWAKEKYDERLISQIKIMTKVMFLYIPLPMFWALFDQQGSRWTLQATTMTGKIGTIEIQPDQMQTVNAILIVIMVPIVDAVVYPLIAKCGFNFTSLKKMTVGMFLASMAFVVAAIVQVEIDKTLPVFPSGNQVQIKVLNIGNNDMAVYFPGKNVTVAQMSQTDTFMTFDVDQLTSINVSSPGSPGVTTVAHEFEPGHRHTLLVWGPNLYRVVKDGLNQKPEKGENGIRFVSTLNEMITIKMSGKVYENVTSHSASNYQFFPSGQKDYTINTTEIAPNCSSDFKSSNLDFGSAYTYVIRSRASDGCLEVKEFEDIPPNTVNMALQIPQYFLLTCGEVVFSVTGLEFSYSQAPSNMKSVLQAGWLLTVAIGNIIVLIVAEAGHFDKQWAEYVLFASLLLVVCIIFAIMARFYTYINPAEIEAQFDEDEKKKGVGKENPYSSLEPVSQTNM |  |  |  | 1100 µM
